# Measured values from publication PMC4786259 (PLoS ONE, 2016).
# System: WT and dopamine transporter knockout (DAT-KO) mice
# Assay: Prepulse inhibition in WT and DAT-KO mice
# Settings: 2 mg/kg clozapine i.p.
smiles,measurement,value
CN1CCN(C2=Nc3cc(Cl)ccc3Nc3ccccc32)CC1 [clozapine],PPI in DAT-KO mice,restored
same,PPI in WT mice,not affected
